Experimental data reported in patent US11603355B2, “Charged ion channel blockers and methods for use” (Nocion Therapeutics, Inc., priority 2019, dated 2023).
Where a name gives a salt, the structure may show the parent alone.

Tests used:
NaV1.7 [1] = biological target: T1, NaV1.7 (Homo sapiens, UniProt Q15858); assay: Manual patch clamp, external block of NaV1.7 current; type: cell-based; settings: % inhibition at 10 μM test concentration, compound in external solution, HEK293 cells, read-out: Nav1.7 Extracellular Inhibition
T1 construct: expressed in transfected cells; host or cells: HEK293 (tetracycline-inducible)
Experimental: Representative compounds of the invention were synthesized according to the described methods and tested for the ability to inhibit voltage-gated sodium channels.
NaV1.7 was expressed in HEK293 cells upon induction with tetracycline. Cells were cultured in DMEM containing 10% dialyzed Fetal Bovine Serum (VWR, Radnor, Pa.), 1% Glutamax (VWR, Radnor, Pa.), 1% Penicillin-Streptomycin (VWR, Radnor, Pa.), 100 mg/L Hygromycin (Thermo Fisher Scientific, Waltham, Mass. and 5 mg/L Blasticidin (Alfa Aesar, Haverhill, Mass.). Cells were grown and maintained at 37° C. in a humidified environment containing 10% CO2 in air. Cells were detached from the culture flask for passage and harvested using 0.05% Trypsin-EDTA (Thermo Fisher Scientific, Waltham, Mass.). To induce NaV1.7, cells were induced with tetracycline (0.1-1 μg/mL, IBI Scientific, Peosta, Iowa) the day before recording and plated onto 24-well plates. Cells were washed with DPBS (VWR, Radnor, Pa.), trypsinized and then triturated five times in 10 mL of growth media to break apart cell aggregates. For one 24-well plate, 2 mL of cell suspension was mixed with 23 mL of fresh growth media and 0.1-1 μg/mL tetracycline added. 1 ml of mixed media with cells was then added to each well of a 24-well plate, with a 12 mm coverslip already placed in the bottom of the well. Cells were then incubated in 37° C. and 10% CO2 overnight.
The intracellular solution contained the following (in mM) CsCl 135, NaCl 10, EGTA 10, HEPES 10, MgCl2 2, adjusted to pH 7.2 with CsOH. The external solution was a normal Ringer solution containing (in mM) NaCl 155, HEPES 10, glucose 10, KCl 3.5, CaCl2 1.5, MgCl2 1 adjusted to pH 7.4 with NaOH. CsCl is from Alfa Aesar, Haverhill, Mass. All other chemicals are from Sigma-Aldrich, St. Louis, Mo. In order to test the degree of internal block by test compounds the compounds were dissolved in internal solution at the indicated test concentration. […] In order to test the degree of external block by test compounds the compounds were dissolved in external solution at the indicated test concentration.
18-24 hours after cells were induced with tetracycline, coverslips were placed into a chamber filled with Normal Ringer solution at room temperature and the chamber placed on a microscope. Pipettes were pulled from borosilicate glass on a P97 puller (Sutter Instrument, Novato, Calif.) and polished with a MF-830 Microforge (Narishige International USA, Inc., Amityville, N.Y.) to have a resistance of 1.5-2.5 MΩ when filled with CsCl internal solution at room temperature. Healthy cells (those that are round and translucent with no visible blemishes) were chosen for seal formation. A seal was formed between the pipette and the cell, and a brief pulse of suction was used to “break in” and establish the whole-cell configuration. The membrane potential was held at −100 mV before the voltage protocol began. Only cells with series resistance between 1.5-5 MΩ were retained for analysis. The voltage protocol was as follows: Cells were held at −100 mV for 12 ms followed by a hyperpolarizing step to −105 mV for 12 ms to monitor the leak. Cells were then stepped back to −100 mV for 40 ms. Cells were then depolarized to −20 mV for 10 ms and then returned to −100 mV for 26 ms.
Once the recording was started, the voltage protocol was run at 30 second intervals for 5 minutes to get a stable baseline. This is followed by 5 Hz stimulation of the same voltage protocol run until the end of experiment. […] The test compound is added for 5 minutes before washing out with normal Ringer's solution. Currents were recorded using PatchMaster software with Heka EPC10 (HEKA Electronics, Lambrecht, Germany). Only cells with inward current amplitudes at −20 mV between 400 pA and 4 nA were accepted. In addition, cells having leak currents greater than 10% of their current amplitudes were discarded. […]

NaV1.7 [2] = biological target: T1, NaV1.7; assay: Manual patch clamp, internal block of NaV1.7 current; type: cell-based; settings: compound in internal solution, HEK293 cells, read-out: Nav1.7 Intracellular Inhibition; for inhibition at 3 µM: % inhibition at 3 μM test concentration; for inhibition at 10 µM: % inhibition at 10 μM test concentration
Procedure, shortened: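 Whole-cell recordings at room temperature in tetracycline-induced HEK293 cells, compound in CsCl internal solution (pH 7.2), held at −100 mV with 10 ms steps to −20 mV. Four 30 s 5 Hz trains after 5 min baseline; fraction of peak inward current remaining computed as Itest/Ibaseline.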

T1 sequence (Q15858 whole entry): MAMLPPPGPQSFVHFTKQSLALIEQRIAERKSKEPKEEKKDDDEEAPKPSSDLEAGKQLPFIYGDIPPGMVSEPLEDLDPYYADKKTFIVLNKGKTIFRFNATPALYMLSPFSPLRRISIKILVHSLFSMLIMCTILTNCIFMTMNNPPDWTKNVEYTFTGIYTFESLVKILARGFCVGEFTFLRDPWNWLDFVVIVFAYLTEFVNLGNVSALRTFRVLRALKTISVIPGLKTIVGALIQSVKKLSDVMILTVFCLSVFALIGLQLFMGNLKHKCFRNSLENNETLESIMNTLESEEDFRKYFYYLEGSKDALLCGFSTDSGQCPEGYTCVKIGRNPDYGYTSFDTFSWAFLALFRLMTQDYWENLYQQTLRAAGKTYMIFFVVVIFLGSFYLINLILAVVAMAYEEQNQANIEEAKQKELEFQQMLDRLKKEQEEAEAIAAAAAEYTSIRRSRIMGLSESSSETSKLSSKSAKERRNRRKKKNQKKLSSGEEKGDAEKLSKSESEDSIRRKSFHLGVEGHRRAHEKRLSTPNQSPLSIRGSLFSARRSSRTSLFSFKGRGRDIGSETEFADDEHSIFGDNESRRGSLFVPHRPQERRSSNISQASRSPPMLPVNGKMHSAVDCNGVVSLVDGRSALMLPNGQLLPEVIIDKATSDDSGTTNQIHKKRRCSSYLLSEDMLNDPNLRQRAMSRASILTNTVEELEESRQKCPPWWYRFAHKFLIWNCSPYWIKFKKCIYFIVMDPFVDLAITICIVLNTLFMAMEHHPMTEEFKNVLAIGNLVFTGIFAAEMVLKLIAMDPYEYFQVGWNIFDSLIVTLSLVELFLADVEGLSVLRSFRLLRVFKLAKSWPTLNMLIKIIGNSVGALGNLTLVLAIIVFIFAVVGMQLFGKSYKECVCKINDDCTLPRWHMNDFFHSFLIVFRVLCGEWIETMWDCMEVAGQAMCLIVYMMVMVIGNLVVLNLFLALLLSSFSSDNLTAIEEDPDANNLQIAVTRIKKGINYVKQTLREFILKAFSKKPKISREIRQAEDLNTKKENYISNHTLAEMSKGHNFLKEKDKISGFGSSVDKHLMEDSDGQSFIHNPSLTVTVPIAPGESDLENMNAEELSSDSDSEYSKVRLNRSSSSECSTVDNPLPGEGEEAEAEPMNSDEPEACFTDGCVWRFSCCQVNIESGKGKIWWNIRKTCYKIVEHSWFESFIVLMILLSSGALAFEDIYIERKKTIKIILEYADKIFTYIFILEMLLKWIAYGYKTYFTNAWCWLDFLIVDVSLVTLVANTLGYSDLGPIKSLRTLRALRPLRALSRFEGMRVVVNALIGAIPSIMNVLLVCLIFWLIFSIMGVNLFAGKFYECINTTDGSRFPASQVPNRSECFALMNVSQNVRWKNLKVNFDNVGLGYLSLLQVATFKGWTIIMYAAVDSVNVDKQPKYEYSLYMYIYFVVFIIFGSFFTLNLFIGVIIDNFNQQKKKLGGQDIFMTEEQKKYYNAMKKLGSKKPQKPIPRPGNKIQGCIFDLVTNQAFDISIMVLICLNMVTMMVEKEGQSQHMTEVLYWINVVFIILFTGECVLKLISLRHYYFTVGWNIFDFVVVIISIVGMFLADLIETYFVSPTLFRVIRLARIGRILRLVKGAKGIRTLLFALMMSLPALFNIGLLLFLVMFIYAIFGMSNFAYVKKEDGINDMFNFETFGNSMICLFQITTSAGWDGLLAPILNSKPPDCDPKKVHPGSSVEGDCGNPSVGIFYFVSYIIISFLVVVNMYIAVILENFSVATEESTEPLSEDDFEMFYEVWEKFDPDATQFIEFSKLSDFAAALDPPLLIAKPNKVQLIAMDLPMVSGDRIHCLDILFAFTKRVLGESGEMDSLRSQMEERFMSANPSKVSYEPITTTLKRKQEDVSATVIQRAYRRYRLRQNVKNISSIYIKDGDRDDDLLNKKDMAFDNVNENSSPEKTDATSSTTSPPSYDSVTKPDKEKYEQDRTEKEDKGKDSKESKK

Compound	inhibition at 10 µM (NaV1.7 [1]) [%]	inhibition at 3 µM (NaV1.7 [2]) [%]	inhibition at 10 µM (NaV1.7 [2]) [%]
Cc1cccc(C)c1NC(=O)C[N+]1(Cc2ccccc2)CCCC(C(N)=O)C1.[Br-] (mixture of isomers) [Compound 53A, 1-benzyl-3-carbamoyl-1-(2-((2,6-dimethylphenyl)amino)-2-oxoethyl) piperidin-1-ium bromide]	< 40	70 to 90	
COC(=O)c1ccc(C[N+]2(CC(=O)Nc3c(C)cccc3C)CCCCC2)cc1.[Br-] [Compound 36A, 1-(2-((2,6-dimethylphenyl)amino)-2-oxoethyl)-1-(4-(methoxycarbonyl)benzyl) piperidin-1-ium bromide]		70 to 90	
[2H]c1c([2H])c([2H])c(C[N+]2(CC(=O)Nc3c(C)cccc3C)CCCCCC2)c([2H])c1[2H].[Cl-] [Compound 33A, 1-(2-((2,6-dimethylphenyl)amino)-2-oxoethyl)-1-((phenyl-d5)methyl) azepan-1-ium chloride]	40 to 70	> 90	
Cc1cccc(-c2ccccc2)c1NC(=O)C[N+]1(Cc2ccccc2)CCCCCC1.[Br-] [Compound 76A]	40 to 70	> 90	
Cc1cccc(C)c1C(=O)OCC[N+]1(Cc2ccccc2)CCCCCC1.[Br-] [Compound 82A, 1-benzyl-1-(2-((2,6-dimethylbenzoyl)oxy)ethyl) azepan-1-ium bromide]		70 to 90	
CCCOC(=O)C1CCC[N+](CC(=O)Nc2c(C)cccc2C)(Cc2ccccc2)C1.[Br-] (centres unmarked) [Compound 47A, 1-benzyl-1-(2-((2,6-dimethylphenyl)amino)-2-oxoethyl)-3-(propoxycarbonyl) piperidin-1-ium bromide]	40 to 70	> 90	
CC[N+](CC)(CCCc1ccccc1)CC(=O)Nc1c(C)cccc1C.[Br-] [Compound 86A, N-(2-((2,6-dimethylphenyl)amino)-2-oxoethyl)-N, N-diethyl-3-phenylpropan-1-aminium bromide]	< 40	> 90	> 95
Cc1cccc(C)c1NC(=O)C[N+]1(Cc2ccccc2)CCCC(C(=O)OC(C)C)C1 (mixture of isomers) [Compound 46A, 1-benzyl-1-(2-((2,6-dimethylphenyl)amino)-2-oxoethyl)-3-(isopropoxycarbonyl) piperidin-1-ium trifluoroacetate salt]	40 to 70	> 90	
COC(=O)c1cccc(C[N+]2(CC(=O)Nc3c(C)cccc3C)CCCCC2)c1.[Br-] [Compound 35A, 1-(2-((2,6-dimethylphenyl)amino)-2-oxoethyl)-1-(3-(methoxycarbonyl)benzyl) piperidin-1-ium bromide]	< 40	> 90	
CCOc1cccc(C)c1NC(=O)C[N+]1(Cc2ccccc2)CCCCCC1.[Br-] [Compound 77A]		70 to 90	
Cc1cccc(C(C)C)c1NC(=O)C[N+]1(Cc2ccccc2)CCCCCC1.[Br-] [Compound 74A]		70 to 90	
CCC(=O)OC1CCC[N+](CC(=O)Nc2c(C)cccc2C)(Cc2ccccc2)C1.[Br-] (centres unmarked) [Compound 52A, 1-benzyl-1-(2-((2,6-dimethylphenyl)amino)-2-oxoethyl)-3-(propionyloxy) piperidin-1-ium bromide]		> 90	
COc1cccc(C)c1NC(=O)C[N+]1(Cc2ccccc2)CCCCCC1 [Compound 71A]		70 to 90	
Cc1cccc(C)c1NC(=O)C[N+]1(Cc2ccccc2)CCCC(C(=O)N2CCCC2)C1 (centres unmarked) [Compound 62A]		> 90	
COC(=O)c1ccccc1C[N+]1(CC(=O)Nc2c(C)cccc2C)CCCCC1.[Br-] [Compound 37A, 1-(2-((2,6-dimethylphenyl)amino)-2-oxoethyl)-1-(2-(methoxycarbonyl)benzyl) piperidin-1-ium bromide]		70 to 90	70 to 95
CNC(=O)C1CCC[N+](CC(=O)Nc2c(C)cccc2C)(Cc2ccccc2)C1 (centres unmarked) [Compound 55A]		70 to 90	

Compound	inhibition at 10 µM (NaV1.7 [1]) [%]	inhibition at 3 µM (NaV1.7 [2]) [%]	inhibition at 10 µM (NaV1.7 [2]) [%]
Cc1cccc(C)c1N1CCC([N+]2(Cc3ccccc3)CCCCC2)C1=O.[Br-] (centres unmarked) [Compound 89A, 1-benzyl-1-(1-(2,6-dimethylphenyl)-2-oxopyrrolidin-3-yl)piperidin-1-ium bromide]		70 to 90	
Cc1cccc(C)c1N1CCCC([N+]2(Cc3ccccc3)CCCC2)C1=O.[Br-] (centres unmarked) [Compound 91A, 1-benzyl-1-(1-(2,6-dimethylphenyl)-2-oxopiperidin-3-yl) pyrrolidin-1-ium bromide]		40 to 70	
COC(=O)C1CC[N+](CC(=O)Nc2c(C)cccc2C)(Cc2ccccc2)CC1.[Br-] (centres unmarked) [Compound 44A, 1-benzyl-1-(2-((2,6-dimethylphenyl)amino)-2-oxoethyl)-4-(methoxycarbonyl) piperidin-1-ium bromide]	< 40	> 90	
Cc1cccc(C)c1NC(=O)C[N+]1(Cc2ccccc2)CCCC(F)(F)C1.[Br-] (centres unmarked) [Compound 32A, 1-benzyl-1-(2-((2,6-dimethylphenyl)amino)-2-oxoethyl)-3,3-difluoropiperidin-1-ium bromide]		> 90	
Cc1cccc(C)c1NC(=O)C[N+]1(Cc2ccccc2)CCCC(C(=O)N2CCCCC2)C1 (centres unmarked) [Compound 63A]		> 90	
Cc1cccc(C)c1NC(=O)C[N+]1(Cc2ccccc2)CCCC(C(=O)N(C)C)C1.[Br-] (centres unmarked) [Compound 65A]		> 90	
CCOC(=O)C1CCC[N+](CC(=O)Nc2c(C)cccc2C)(Cc2ccccc2)C1.[Br-] (centres unmarked) [Compound 45A, 1-benzyl-1-(2-((2,6-dimethylphenyl)amino)-2-oxoethyl)-3-(ethoxycarbonyl) piperidin-1-ium bromide]		70 to 90	
CCCOC(=O)N1CCC[N+](CC(=O)Nc2c(C)cccc2C)(Cc2ccccc2)CC1.[Br-] (centres unmarked) [Compound 68A, 1-benzyl-1-(2-((2,6-dimethylphenyl)amino)-2-oxoethyl)-4-(propoxycarbonyl)-1,4-diazepan-1-ium bromide]		> 90	
Cc1cccc(C#N)c1NC(=O)C[N+]1(Cc2ccccc2)CCCCCC1.[Br-] [Compound 72A]		> 90	
CCCNC(=O)C1CCC[N+](CC(=O)Nc2c(C)cccc2C)(Cc2ccccc2)C1 (centres unmarked) [Compound 57A]		70 to 90	
CCCCNc1ccc(NC(=O)C[N+]2(Cc3ccccc3)CCCCCC2)cc1.O=C[O-] [Compound 41A, 1-benzyl-1-(2-((4-(butylamino)phenyl)amino)-2-oxoethyl) azepan-1-ium formate]			70 to 95
CCN(CC)C(=O)C1CCC[N+](CC(=O)Nc2c(C)cccc2C)(Cc2ccccc2)C1 (centres unmarked) [Compound 66A]		70 to 90	
Cc1cccc(C)c1NC(=O)C[N+]1(Cc2ccccc2)CCCC(C(=O)NC(C)C)C1 (centres unmarked) [Compound 56A]		40 to 70	
CCCc1cccc(C)c1NC(=O)C[N+]1(Cc2ccccc2)CCCCCC1.[Br-] [Compound 75A]		> 90	
CCNC(=O)C1CCC[N+](CC(=O)Nc2c(C)cccc2C)(Cc2ccccc2)C1.[Br-] (centres unmarked) [Compound 54A, 1-benzyl-1-(2-((2,6-dimethylphenyl)amino)-2-oxoethyl)-3-(ethylcarbamoyl) piperidin-1-ium bromide]		> 90	
